{
  "source": "patent US20230250083A1",
  "about": "“CRYSTALS” (NIPPON SHINYAKU CO., LTD., priority 2017, published 2023)",
  "assay_type_in_all_cases": "physicochemical",
  "key": {"[1]": {"assay": "Solvent-mediated transformation test", "conditions": "for Crystal form after 1 day / Crystal form after 5 days: stirred at room temperature", "experimental": "Each solvent was added to the Form-I crystal of the compound A, and the mixture was stirred at room temperature for 24 hours, and then, insolubles was filtered to prepare a saturated solution. Mixed crystals (about 10 mg) in which the Form-I crystal and the Form-II crystal were mixed at 1:1 were added to each solution, and the resultant mixture was stirred at room temperature for 5 days. Formed crystals were collected through filtration, and the crystal form thereof was confirmed."}, "[2]": {"assay": "Crystallization experiments using various solvents, overall outcome", "conditions": "operation procedures 1 to 4, Tables 1 to 3", "experimental": "Each of various solvents was added to the Form-I crystal of the present invention (several mg), crystals of the compound A were precipitated according to the following operation procedures, and the crystal form of the precipitated crystals was confirmed. The results of the operation procedures 1 to 3 are shown in Table 1 and Table 2, and the results of the operation procedure 4 are shown in Table 3. The symbol “-” in Table 1 to Table 3 means that no precipitate was obtained."}, "[3]": {"assay": "Stability test (sealed glass bottle, 90° C.)", "experimental": "The Form-II crystal of the compound A was put in a glass bottle, and the glass bottle was tightly sealed and stored at 90° C. The sample was taken out after 1 day, 3 days, and 7 days, and was dissolved in methanol at a concentration of 1 mg/mL. Each solution was subjected to measurement of analogs by HPLC. As for the crystals after 7 days, the crystal form was confirmed."}, "[4]": {"conditions": "acetone:water 20:80 saturated with Form-I"}, "[5]": {"conditions": "acetonitrile saturated with Form-I"}, "[6]": {"conditions": "90° C., after 1 day, tightly sealed glass bottle"}, "[7]": {"conditions": "90° C., after 3 days, tightly sealed glass bottle"}, "[8]": {"conditions": "90° C., after 7 days, tightly sealed glass bottle"}},
  "data": [
    {"smiles": "C[C@H](Nc1cc(-c2cnn(C)c2)cc(Nc2cnccn2)n1)c1ccc(F)cc1.O=C(O)/C=C\\C(=O)O", "note": "[Form-I + Form-II (1:1)]", "values": [
      {"measurement": "Crystal form after 1 day", "setting": "[1]; [4]", "result": "Form-I"},
      {"measurement": "Crystal form after 5 days", "setting": "[1]; [4]", "result": "Form-I"},
      {"measurement": "Crystal form after 1 day", "setting": "[1]; [5]", "result": "Form-I"},
      {"measurement": "Crystal form after 5 days", "setting": "[1]; [5]", "result": "Form-I"},
      {"measurement": "crystal form transformation of mixed crystals", "setting": "[1]; after 5 days, in acetonitrile, ethyl acetate, and water-containing acetone at room temperature", "result": "all transformed to the Form-I crystal"},
      {"measurement": "Crystal form after 5 days", "setting": "[1]; ethyl acetate saturated with Form-I", "result": "Form-I"}
    ]},
    {"smiles": "C[C@H](Nc1cc(-c2cnn(C)c2)cc(Nc2cnccn2)n1)c1ccc(F)cc1.O=C(O)/C=C\\C(=O)O", "note": "[Form-I crystal of the present invention]", "values": [
      {"measurement": "crystallization from various solvents (which form crystallizes)", "setting": "[2]", "result": "preferentially crystallized"},
      {"measurement": "thermodynamic stability in solvent", "setting": "[1]; acetonitrile, ethyl acetate, water-containing acetone at room temperature", "result": "thermodynamically stable"}
    ]},
    {"smiles": "C[C@H](Nc1cc(-c2cnn(C)c2)cc(Nc2cnccn2)n1)c1ccc(F)cc1.O=C(O)/C=C\\C(=O)O", "note": "[Form-II]", "values": [
      {"measurement": "Appearance", "setting": "[3]; [6]", "result": "no change"},
      {"measurement": "HPLC area (%)", "setting": "[3]; [6]", "result": 99.7, "unit": "%"},
      {"measurement": "Appearance", "setting": "[3]; [7]", "result": "no change"},
      {"measurement": "HPLC area (%)", "setting": "[3]; [7]", "result": 99.8, "unit": "%"},
      {"measurement": "Appearance", "setting": "[3]; [8]", "result": "no change"},
      {"measurement": "Crystal form after 7 days", "setting": "[3]; [8]", "result": "Form-II"},
      {"measurement": "HPLC area (%)", "setting": "[3]; [8]", "result": 99.6, "unit": "%"},
      {"measurement": "Appearance", "setting": "[3]; Before storage", "result": "pale yellow crystal"},
      {"measurement": "HPLC area (%)", "setting": "[3]; Before storage", "result": 99.7, "unit": "%"},
      {"measurement": "crystallization from various solvents (which form crystallizes)", "setting": "[2]; listed as Form-II crystal of the present invention", "result": "crystallized only in water-containing systems"}
    ]}
  ]
}
